Test results: patent US20250353852A1, “COMPOUNDS AND COMPOSITIONS THAT INHIBIT PIKFYVE” (Kineta, Inc., priority 2021, published 2025)
One block for each compound: values may come before it.

Assays:
FAB1 TDP-43 yeast strain = assay: Propidium iodide viability assay, FAB1 TDP-43 control yeast strain; type: cell-based; details: for FAB1 TDP-43 (active/inactive): FAB1 TDP-43 yeast model
Method: (§1) Generation of TDP-43 yeast model expressing human PIKfyve. Human PIKFYVE (“entry clone”) was cloned into […] (“destination vector”) according to standard Gateway cloning protocols (Invitrogen, Life Technologies). The resulting pAG416GPD-PIKFYVE plasmids were amplified in E. coli and plasmid identity confirmed by restriction digest and Sanger sequencing. […]+) (FIG. 2). Transformed yeast were plated on solid agar plates with complete synthetic media lacking uracil (CSM-ura) and containing 2% glucose. Individual colonies harboring the control or PIKFYVE TDP-43 plasmids were recovered. A plasmid containing wild-type TDP-43 under the transcriptional control of the GAL1 promoter and containing the […] as a selectable marker was transformed into the […]-PIKFYVE yeast strain (FIG. 1). Transformed yeast were plated on CSM-ura containing 2% glucose and 200 μg/mL G418 after overnight recovery in media lacking antibiotic. Multiple independent isolates were further evaluated for cytotoxicity and TDP-43 expression levels. Viability Assay. A control yeast strain with the wild-type yeast FAB1 gene and TDP-43 (“FAB1 TDP-43”, carries empty pAG416 plasmid), and the “PIKFYVE TDP-43” yeast strain, were assessed for toxicity using a propidium iodide viability assay. Both yeast strains were transferred from solid CSM-ura/2% glucose agar plates into 3 mL of liquid CSM-ura/2% glucose media for 6-8 hours at 30° C. with aeration. Yeast cultures were then diluted to an optical density at 600 nm wavelength (OD600) of 0.005 in 3 mL of CSM-ura/2% raffinose and grown overnight at 30° C. with aeration to an OD600 of 0.3-0.8. Log-phase overnight cultures were diluted to OD600 of 0.005 in CSM-ura containing either 2% raffinose or galactose and 150 μL dispensed into each well of a flat bottom 96-well plates. Compounds formulated in 100% dimethyl sulfoxide (DMSO) were serially diluted in DMSO and 1.5 μL diluted compound transferred to the 96-well plates using a multichannel pipet. Wells containing DMSO alone were also evaluated as controls for compound effects. Tested concentrations ranged from 15 μM to 0.11 μM. Cultures were immediately mixed to ensure compound distribution and covered plates incubated at 30° C. for 24 hours in a stationary, humified incubator. Upon the completion of incubation, cultures were assayed for viability using propidium iodide (PI) to stain for dead/dying cells. A working solution of PI was made where, for each plate, 1 μL of 10 mM PI was added to 10 mL of CSM-ura (raffinose or galactose). […] The overnight 96-well assay plate was then mixed with a multichannel pipet and 50 μL transferred to the PI-containing plate. This plate was then incubated for 30 minutes at 30° C. in the dark. A benchtop flow cytometer (Miltenyi MACSquant) was then used to assess red fluorescence (B2 channel), forward scatter, and side scatter (with following settings: gentle mix, high flow rate, fast measurement, 10,000 events). Intensity histograms were then gated for “PI-positive” or “PI-negative” using the raffinose and galactose cultures treated with DMSO as controls. The DMSO controls for raffinose or galactose-containing cultures were used to determine the window of increased cell death and this difference set to 100. All compounds were similarly gated and then compared to this maximal window to establish the percent reduction in PI-positive cells.

[1] = test system: PIKFYVE TDP-43 yeast strain; assay: Propidium iodide viability assay, PIKFYVE TDP-43 yeast strain; type: cell-based; details: for PIKfyve TDP-43 (active/inactive): PIKFYVE TDP-43 yeast model; for IC50: Saccharomyces cerevisiae, PIKFYVE TDP-43 yeast strain, values plotted in FIG. 7
Method: as §1

[2] = biological target: full-length human PIKFYVE (Homo sapiens (Human), UniProt Q9Y2I7, L932S/Q1183K/Q995L/S1033A/S696N/T998S); assay: PIKfyve biochemical assay (ADP-Glo Kinase assay, Carna Biosciences); details: class symbols
How it was run: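 N-terminal GST-fused full-length PIKFYVE from baculovirus, incubated with compound, substrate and ATP in 50 mM MOPS, 1 mM DTT, pH7.2 for 1 hour at room temperature. ADP formed detected by ADP-Glo luminescence; IC50 from four-parameter logistic fit of % inhibition.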

U2OS cells = assay: EEA1 assay (endosomal vesicle enlargement as surrogate readout of PIKFyve inhibition); type: cell-based; details: 3 hours of treatment
Method: EEA1 Assay. Genetic or pharmacological disruption of PIKfyve activity results in enlargement of endosomal vesicles. This enlargement was utilized as a surrogate readout of PIKFyve inhibition for routine triage of PIKfyve inhibitors. U2OS cells grown in 96-well assay plates were treated with compound diluted in DMEM media containing 10% fetal bovine serum. After 3 hours of treatment, cells were fixed with paraformaldehyde, permeabilized with 0.2% Triton-X in phosphate buffered saline and stained against EEA1. During the secondary antibody staining, cells were also stained with CellMask DeepRed and Hoechst to detect cytoplasms and nuclei respectively. Endosomal structures were visualized using a high content imager at 40× magnification. Images were analyzed using a linear classifier algorithm integrating EEA1 spot size, intensity and texture trained on images of cells treated with the potent reference compound APY0201. Compound activity was calculated by subtracting the DMSO signal and calculating percentage activity relative to maximal APY0201 activity. IC50s were then calculated from concentration vs. % inhibition data by logistic regression.

Sequence of full-length human PIKFYVE (Q9Y2I7 whole entry S696N/L932S/Q995L/T998S/S1033A/Q1183K, the tested form may be a part): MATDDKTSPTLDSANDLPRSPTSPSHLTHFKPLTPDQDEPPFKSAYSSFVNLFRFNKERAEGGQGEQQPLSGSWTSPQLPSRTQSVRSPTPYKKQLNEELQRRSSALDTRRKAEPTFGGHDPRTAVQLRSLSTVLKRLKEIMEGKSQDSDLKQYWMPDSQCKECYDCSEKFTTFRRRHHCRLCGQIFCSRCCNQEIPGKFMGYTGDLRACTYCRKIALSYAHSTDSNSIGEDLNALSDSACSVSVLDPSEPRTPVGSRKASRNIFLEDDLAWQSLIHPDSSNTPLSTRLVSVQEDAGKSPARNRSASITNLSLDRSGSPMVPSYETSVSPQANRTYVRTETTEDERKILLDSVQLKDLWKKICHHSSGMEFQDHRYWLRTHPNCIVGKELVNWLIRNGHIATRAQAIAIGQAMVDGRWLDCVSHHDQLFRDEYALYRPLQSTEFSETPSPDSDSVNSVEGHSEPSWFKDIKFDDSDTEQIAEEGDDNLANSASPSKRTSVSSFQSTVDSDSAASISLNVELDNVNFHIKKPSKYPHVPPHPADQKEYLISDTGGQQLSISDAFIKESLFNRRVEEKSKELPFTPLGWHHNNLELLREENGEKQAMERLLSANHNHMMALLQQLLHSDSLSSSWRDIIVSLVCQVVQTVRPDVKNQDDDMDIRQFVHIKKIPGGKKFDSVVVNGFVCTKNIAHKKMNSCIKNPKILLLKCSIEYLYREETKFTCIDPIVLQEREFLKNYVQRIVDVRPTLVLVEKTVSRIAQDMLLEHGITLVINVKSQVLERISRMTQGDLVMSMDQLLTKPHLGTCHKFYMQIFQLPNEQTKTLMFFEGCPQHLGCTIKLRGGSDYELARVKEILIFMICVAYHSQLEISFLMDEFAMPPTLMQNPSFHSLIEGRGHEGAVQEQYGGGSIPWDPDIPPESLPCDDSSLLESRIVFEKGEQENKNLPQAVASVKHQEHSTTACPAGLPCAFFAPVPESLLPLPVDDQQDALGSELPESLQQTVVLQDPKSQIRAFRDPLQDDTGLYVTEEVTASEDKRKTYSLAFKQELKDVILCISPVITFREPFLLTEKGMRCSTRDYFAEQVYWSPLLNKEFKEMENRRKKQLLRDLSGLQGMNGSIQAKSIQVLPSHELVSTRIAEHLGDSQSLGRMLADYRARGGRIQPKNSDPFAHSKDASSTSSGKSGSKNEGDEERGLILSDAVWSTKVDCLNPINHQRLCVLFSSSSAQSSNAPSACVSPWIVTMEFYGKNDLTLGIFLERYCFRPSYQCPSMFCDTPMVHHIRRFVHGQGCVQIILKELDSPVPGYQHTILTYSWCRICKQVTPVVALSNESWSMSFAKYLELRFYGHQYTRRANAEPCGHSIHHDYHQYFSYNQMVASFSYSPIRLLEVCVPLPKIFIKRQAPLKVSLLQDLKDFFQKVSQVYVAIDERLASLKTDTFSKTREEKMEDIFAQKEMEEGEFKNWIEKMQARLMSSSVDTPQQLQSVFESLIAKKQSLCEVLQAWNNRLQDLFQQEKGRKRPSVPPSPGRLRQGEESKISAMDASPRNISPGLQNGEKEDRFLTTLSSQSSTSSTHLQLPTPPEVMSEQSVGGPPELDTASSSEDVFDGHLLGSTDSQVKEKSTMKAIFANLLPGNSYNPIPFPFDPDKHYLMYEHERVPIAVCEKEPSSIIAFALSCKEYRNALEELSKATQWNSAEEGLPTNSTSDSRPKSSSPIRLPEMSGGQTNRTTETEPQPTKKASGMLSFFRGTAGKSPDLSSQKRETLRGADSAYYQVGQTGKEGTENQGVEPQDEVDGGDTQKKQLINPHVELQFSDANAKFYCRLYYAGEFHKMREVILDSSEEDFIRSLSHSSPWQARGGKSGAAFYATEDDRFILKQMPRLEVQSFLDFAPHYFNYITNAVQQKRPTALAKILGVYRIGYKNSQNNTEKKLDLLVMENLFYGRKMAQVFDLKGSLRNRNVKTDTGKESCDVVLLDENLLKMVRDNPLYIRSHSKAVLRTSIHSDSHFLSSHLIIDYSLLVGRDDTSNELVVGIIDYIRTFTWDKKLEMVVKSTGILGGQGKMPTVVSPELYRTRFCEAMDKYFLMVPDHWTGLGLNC

Compound: Cn1c(-c2ccncc2)nc2c(N3CCOCC3)ncnc21
FAB1 TDP-43 (active/inactive) (FAB1 TDP-43 yeast strain): Inactive
PIKfyve TDP-43 (active/inactive) [1]: Inactive

Compound: CN(C)c1cc(N2CCOCC2)n2nc(-c3ccncc3)cc2n1
FAB1 TDP-43 (active/inactive) (FAB1 TDP-43 yeast strain): Inactive
PIKfyve TDP-43 (active/inactive) [1]: Inactive

Compound: Cc1cccc(/C=N/Nc2cc(N3CCOCC3)nc(OCCc3ccc(CN)cc3)n2)c1
IC50 [1]: 1120 nM

Compound: c1ccc(-c2cccc(-c3cc(N4CCOCC4)n4nc(-c5ccncc5)cc4n3)n2)cc1
IC50 [1]: 230 nM

Compound: Oc1cc(-c2ccccc2)nn1-c1cc(N2CCOCC2)n2nc(-c3ccncc3)nc2n1
IC50 [1]: 693 nM

Compound: Cc1cccc(/C=N/Nc2nc(N3CCOCC3)c3ncccc3n2)c1
IC50 [1]: 8210 nM

Compound: c1ccc(-c2ccnc(-c3cc(N4CCOCC4)nc(OCc4ccncc4)n3)n2)cc1
IC50 [1]: 1450 nM

Compound: c1ccc(N2CCc3c(OCc4cccnc4)nc(N4CCOCC4)nc32)cc1
IC50 [1]: 2680 nM

Compound: Fc1cccc(-c2ccnn2-c2nc(N3CCOCC3)c3ncccc3n2)c1
IC50 [1]: 5750 nM

Compound: Cc1cccc(/C=N/Nc2cc(N3CCOCC3)n3nc(-c4ccncc4)cc3n2)c1 [APYO201, reference compound]
viable cells in FAB1 TDP-43 (FAB1 TDP-43 yeast strain; across a range of compound concentrations (only 0.23 μM is shown), FIG. 5): no increase in viable cells
population of propidium iodide-positive dead cells in PIKFYVE TDP-43 ([1]; 0.23 μM, FIG. 6): reduced the population of propidium iodide-positive dead cells

Compound: Oc1cc(-c2ccccc2)nn1-c1cc(N2CCOCC2)n2nc(-c3ccncc3)cc2n1 [Compound 51, 1-(7-morpholino-2-(pyridin-4-yl)pyrazolo[1,5-a]pyrimidin-5-yl)-3-phenyl-1H-pyrazol-5-ol]
IC50 [2]: < 10 nM
IC50 (U2OS cells; Homo sapiens, class symbols): 1000 to 10000 nM

Compound: Cc1cccc(-c2ccn(-c3cc(N4CCOCC4)n4nc(-c5ccncc5)cc4n3)n2)c1 [Compound 65, 4-(2-(pyridin-4-yl)-5-(3-(m-tolyl)-1H-pyrazol-1-yl)pyrazolo[1,5-a]pyrimidin-7-yl)morpholine]
IC50 [2]: 10 to 100 nM
IC50 (U2OS cells; Homo sapiens, class symbols): 100 to 1000 nM

Compound: COc1nn(-c2cc(N3CCOCC3)n3nc(-c4ccncc4)cc3n2)cc1-c1ccccc1 [Compound 66, 4-(5-(3-methoxy-4-phenyl-1H-pyrazol-1-yl)-2-(pyridin-4-yl)pyrazolo[1,5-a]pyrimidin-7-yl)morpholine]
IC50 [2]: > 10000 nM
IC50 (U2OS cells; Homo sapiens, numeric values): > 3000 nM

Compound: COc1cccc(-c2ccn(-c3cc(N4CCOCC4)n4nc(-c5ccncc5)cc4n3)n2)c1 [Compound 71, 4-(5-(3-(3-methoxyphenyl)-1H-pyrazol-1-yl)-2-(pyridin-4-yl)pyrazolo[1,5-a]pyrimidin-7-yl)morpholine]
IC50 [2]: 10 to 100 nM
IC50 (U2OS cells; Homo sapiens, class symbols): 100 to 1000 nM

Compound: COc1nn(-c2cc(N3CCOCC3)n3nccc3n2)cc1-c1ccccc1 [Compound 77, 4-(5-(3-methoxy-4-phenyl-1H-pyrazol-1-yl)pyrazolo[1,5-a]pyrimidin-7-yl)morpholine]
IC50 [2]: > 10000 nM
IC50 (U2OS cells; class symbols): 1000 to 10000 nM

IC50 (U2OS cells; Homo sapiens, class symbols): 1000 to 10000 nM
Compound: Cc1cccc(-c2ccn(-c3cc(N4CCOCC4)n4nccc4n3)n2)c1 [Compound 78, 4-(5-(3-(m-tolyl)-1H-pyrazol-1-yl)pyrazolo[1,5-a]pyrimidin-7-yl)morpholine]

Compound: Cc1cccc(-c2ccn(-c3cc(N4CCOCC4)n4nc(-c5cccnc5)cc4n3)n2)c1 [Compound 79]
IC50 [2]: < 10 nM
IC50 (U2OS cells; Homo sapiens, class symbols): 100 to 1000 nM

Compound: c1ccc(-c2nccc(-c3cc(N4CCOCC4)n4nc(C5CCCO5)cc4n3)n2)cc1 (stereo not drawn) [Compound 97, 4-(5-(2-phenylpyrimidin-4-yl)-2-(tetrahydrofuran-2-yl)pyrazolo[1,5-a]pyrimidin-7-yl)morpholine]
IC50 [2]: 10 to 100 nM
IC50 (U2OS cells; Homo sapiens, class symbols): 1000 to 10000 nM

Compound: Cn1ccc(-c2cccc(-c3cc(N4CCOCC4)n4nc(-c5ccncc5)cc4n3)c2)n1 [Compound 142, 4-(5-(3-(1-methyl-1H-pyrazol-3-yl)phenyl)-2-(pyridin-4-yl)pyrazolo[1,5-a]pyrimidin-7-yl)morpholine]
IC50 [2]: 10 to 100 nM
IC50 (U2OS cells; Homo sapiens, class symbols): 1000 to 10000 nM

IC50 (U2OS cells; Homo sapiens, class symbols): 1000 to 10000 nM
Compound: COc1nn(-c2cc(N3CCOCC3)n3nc(C(O)CO)cc3n2)cc1-c1ccccc1 (stereo not drawn) [Compound 145, 1-(5-(3-methoxy-4-phenyl-1H-pyrazol-1-yl)-7-morpholinopyrazolo[1,5-a]pyrimidin-2-yl)ethane-1,2-diol]

Compound: Cc1cccc(-c2ccn(-c3cc(N4CCOCC4)n4nc(CCC(=O)N(C)C)cc4n3)n2)c1 [Compound 149, N,N-dimethyl-3-(7-morpholino-5-(3-(m-tolyl)-1H-pyrazol-1-yl)pyrazolo[1,5-a]pyrimidin-2-yl)propanamide]
IC50 (U2OS cells; Homo sapiens, class symbols): 100 to 1000 nM

IC50 (U2OS cells; Homo sapiens, class symbols): 1000 to 10000 nM
Compound: Cc1cccc(-c2ccn(-c3cc(N4CCOCC4)n4nc(C(O)CO)cc4n3)n2)c1 (stereo not drawn) [Compound 150, 1-(7-morpholino-5-(3-(m-tolyl)-1H-pyrazol-1-yl)pyrazolo[1,5-a]pyrimidin-2-yl)ethane-1,2-diol]

IC50 (U2OS cells; Homo sapiens, class symbols): 1000 to 10000 nM
Compound: Cc1cccc(-c2ccn(-c3cc(N4CCOCC4)n4nc(C5CCN(C)C(=O)C5)cc4n3)n2)c1 (stereo not drawn) [Compound 151, 1-methyl-4-(7-morpholino-5-(3-(m-tolyl)-1H-pyrazol-1-yl)pyrazolo[1,5-a]pyrimidin-2-yl)piperidin-2-one]

IC50 (U2OS cells; Homo sapiens, class symbols): 1000 to 10000 nM
Compound: Cn1ccc(-c2cccc(-c3cc(N4CCOCC4)n4nc(N5CCC(O)CC5)cc4n3)c2)n1 [Compound 152, 1-(5-(3-(1-methyl-1H-pyrazol-3-yl)phenyl)-7-morpholinopyrazolo[1,5-a]pyrimidin-2-yl)piperidin-4-ol]

Compound: Cc1cccc(/C=N/Nc2cc(N3CCOCC3)n3nc(-c4ccncc4)cc3n2)c1 [drawing 327]
FAB1 TDP-43 (active/inactive) (FAB1 TDP-43 yeast strain): Inactive
PIKfyve TDP-43 (active/inactive) [1]: Active

Compound: Cc1cccc(/C=N/Nc2cc(N3CC4CC3CO4)n3nc(-c4ccncc4)cc3n2)c1 (stereo not drawn) [drawing 328]
FAB1 TDP-43 (active/inactive) (FAB1 TDP-43 yeast strain): Inactive
PIKfyve TDP-43 (active/inactive) [1]: Active

Compound: Cc1cccc(/C=N/Nc2nc(N3CCOCC3)c3nc(-c4ccncc4)n(C)c3n2)c1 [drawing 329]
FAB1 TDP-43 (active/inactive) (FAB1 TDP-43 yeast strain): Inactive
PIKfyve TDP-43 (active/inactive) [1]: Active

Compound: N#Cc1cc(N2CCOCC2)n2nc(-c3ccncc3)cc2n1 [drawing 332]
FAB1 TDP-43 (active/inactive) (FAB1 TDP-43 yeast strain): Inactive
PIKfyve TDP-43 (active/inactive) [1]: Inactive

Compound: Cc1cccc(/C=N/Nc2nc(N3CCOCC3)c3nc(-c4ccncc4)n(C)c3n2)c1 [drawing 343]
IC50 [1]: 4720 nM

Compound: Oc1cc(C2CCOCC2)nn1-c1cc(N2CCOCC2)n2nc(-c3ccncc3)cc2n1 [drawing 345]
IC50 [1]: 9100 nM
